The source of these data is patent publication US9777005B2 (Takeda Pharmaceutical Company Limited, priority 2012, dated 2017).

This experiment concerns the target T1, human M1 receptor (hCHRM1) (Homo sapiens, UniProt P11229).
T1 construct: expressed in transfected cells; host or cells: CHO-K1
T1 sequence (P11229 1-460): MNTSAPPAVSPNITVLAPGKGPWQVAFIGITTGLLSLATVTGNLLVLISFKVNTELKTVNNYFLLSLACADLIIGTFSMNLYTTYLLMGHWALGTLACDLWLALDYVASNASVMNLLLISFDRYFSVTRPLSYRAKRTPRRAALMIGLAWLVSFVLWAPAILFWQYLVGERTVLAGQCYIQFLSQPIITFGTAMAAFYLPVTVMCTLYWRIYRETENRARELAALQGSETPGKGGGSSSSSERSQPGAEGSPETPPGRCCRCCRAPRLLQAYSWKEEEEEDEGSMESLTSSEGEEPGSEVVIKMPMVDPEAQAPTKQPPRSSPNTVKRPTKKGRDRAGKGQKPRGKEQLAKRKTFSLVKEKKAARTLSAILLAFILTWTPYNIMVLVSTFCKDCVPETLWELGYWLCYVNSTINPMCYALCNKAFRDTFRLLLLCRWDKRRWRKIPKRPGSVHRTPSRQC
Kind of experiment: Measurement of M1 receptor positive allosteric modulator (M1PAM) activity, calcium fluorescence (FLIPRtetra) in CHO-K1 cells in the presence of acetylcholine at EC20. The format is cell-based. The settings on record: in the presence of acetylcholine at EC20 (final 0.6 nM), CHO-K1 cells expressing hCHRM1; for pEC50: inflection point of M1PAM activity, read-out: IP value; for activity (%) at 10 μM: test compound 10 μM. Put shortly:
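CHO-K1 cells expressing human M1 were loaded with Fluo-4 AM, and compound was added with acetylcholine at EC20 (final 0.6 nM). Calcium fluorescence was read on FLIPRtetra for 1 min. Activity was normalized to 1 μM acetylcholine (100%) and DMSO (0%), and the curve inflection point was reported as IP.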

pEC50: −log10 of the molar value.

In the case of `Cn1cc(-c2ccc(CN3Cc4ccnc(OCCC5CC5)c4C3=O)cc2)nn1` [Example 254, 4-(2-cyclopropylethoxy)-2-(4-(1-methyl-1H-1,2,3-triazol-4-yl)benzyl)-1,2-dihydro-3H-pyrrolo[3,4-c]pyridin-3-one], the pEC50 was 7.17 and the “activity (%) at 10 μM” value turned out to be 110%.

As for `Cn1ccc(-c2ccc(CN3Cc4ccnc(O[C@H]5CCC[C@@H]5O)c4C3=O)cc2)n1` (relative stereo) [Example 237, 4-((trans-2-hydroxycyclopentyl)oxy)-2-(4-(1-methyl-1H-pyrazol-3-yl)benzyl)-1,2-dihydro-3H-pyrrolo[3,4-c]pyridin-3-one], the pEC50 was 7.64 and the “activity (%) at 10 μM” value worked out at 108%.

As for `Cn1cc(-c2ccc(CN3Cc4ccnc(Oc5ccc(OC(F)(F)F)cc5C#N)c4C3=O)cc2)cn1` [Example 363, 2-((2-(4-(1-methyl-1H-pyrazol-4-yl)benzyl)-3-oxo-2,3-dihydro-1H-pyrrolo[3,4-c]pyridin-4-yl)oxy)-5-(trifluoromethoxy)benzonitrile], the pEC50 is 8.18 and the “activity (%) at 10 μM” value was found to be 94%.

Consider `CC(C)n1cc(-c2ccc(CN3Cc4cccc(Oc5c(F)cc(C#N)cc5F)c4C3=O)cn2)cn1` [Example 382, 3,5-difluoro-4-((2-((6-(1-isopropyl-1H-pyrazol-4-yl)pyridin-3-yl)methyl)-3-oxo-2,3-dihydro-1H-isoindol-4-yl)oxy)benzonitrile], for which the pEC50 was 7.15 and the “activity (%) at 10 μM” value was 99%.

`Cc1cc(-c2ccc(CN3Cc4cccc(Oc5c(F)cccc5C#N)c4C3=O)cc2)ccn1` [Example 72, 3-fluoro-2-((2-(4-(2-methylpyridin-4-yl)benzyl)-3-oxo-2,3-dihydro-1H-isoindol-4-yl)oxy)benzonitrile]: the pEC50 was 7.06 and the “activity (%) at 10 μM” value amounted to 102%.

Turning to `O=C1c2c(ccnc2OCC2CCCO2)CN1Cc1ccc(-c2cnn(CC(F)(F)F)c2)cc1` (stereo not drawn) [Example 287, 4-((tetrahydrofuran-2-yl)methoxy)-2-(4-(1-(2,2,2-trifluoroethyl)-1H-pyrazol-4-yl)benzyl)-1,2-dihydro-3H-pyrrolo[3,4-c]pyridin-3-one], the pEC50 was 8.00 and the “activity (%) at 10 μM” value turned out to be 99%.

As to `Cc1nn(C)cc1-c1ccc(CN2Cc3ccnc(OCC(F)(F)c4ccccn4)c3C2=O)c(F)c1` [Example 347, 4-(2,2-difluoro-2-(pyridin-2-yl)ethoxy)-2-(4-(1,3-dimethyl-1H-pyrazol-4-yl)-2-fluorobenzyl)-1,2-dihydro-3H-pyrrolo[3,4-c]pyridin-3-one], the pEC50 was 8.00 and the “activity (%) at 10 μM” value is 97%.

In the case of `Cn1cc(-c2ccc(CN3Cc4ncnc(OCc5ccc(F)cc5F)c4C3=O)cc2)nn1` [Example 340, 4-((2,4-difluorobenzyl)oxy)-6-(4-(1-methyl-1H-1,2,3-triazol-4-yl)benzyl)-6,7-dihydro-5H-pyrrolo[3,4-d]pyrimidin-5-one], the pEC50 is 8.42 and the “activity (%) at 10 μM” value is listed as 106%.

Consider `Cn1cc(-c2ccc(CN3Cc4ccnc(Oc5ccc(OC(F)(F)F)cc5F)c4C3=O)cc2)cn1` [Example 362, 4-(2-fluoro-4-(trifluoromethoxy)phenoxy)-2-(4-(1-methyl-1H-pyrazol-4-yl)benzyl)-1,2-dihydro-3H-pyrrolo[3,4-c]pyridin-3-one], for which the pEC50 was 7.52 and the “activity (%) at 10 μM” value was determined as 98%.

As for `CCCc1ccc(Oc2nccc3c2C(=O)N(Cc2ccc(C(N)=O)cc2)C3)c(F)c1` [Example 450, 4-((4-(2-fluoro-4-propylphenoxy)-3-oxo-1,3-dihydro-2H-pyrrolo[3,4-c]pyridin-2-yl)methyl)benzamide], the pEC50 was 8.00 and the “activity (%) at 10 μM” value is 102%.

Turning to `CCC(O)COc1nccc2c1C(=O)N(Cc1ccc(-c3cn(C)nc3C)cc1)C2` (single isomer, unassigned) [Example 277, 2-(4-(1,3-dimethyl-1H-pyrazol-4-yl)benzyl)-4-(2-hydroxybutoxy)-1,2-dihydro-3H-pyrrolo[3,4-c]pyridin-3-one], the pEC50 was 7.38 and the “activity (%) at 10 μM” value amounted to 96%.

For the molecule `O=C1c2c(ccnc2OCC2CCCO2)CN1Cc1ccc(-c2cnn(CC3CC3)c2)cc1` (stereo not drawn) [Example 288, 2-(4-(1-(cyclopropylmethyl)-1H-pyrazol-4-yl)benzyl)-4-((tetrahydrofuran-2-yl)methoxy)-1,2-dihydro-3H-pyrrolo[3,4-c]pyridin-3-one], the pEC50 is 7.92 and the “activity (%) at 10 μM” value came to 103%.

As for `C=C(C)c1ccc(Oc2nccc3c2C(=O)N(Cc2ccc(-c4cnnc(C)c4)cc2)C3)c(F)c1` [Example 411, 4-(2-fluoro-4-(prop-1-en-2-yl)phenoxy)-2-(4-(6-methylpyridazin-4-yl)benzyl)-1,2-dihydro-3H-pyrrolo[3,4-c]pyridin-3-one], the pEC50 was 7.21 and the “activity (%) at 10 μM” value is on record as 102%.

For `NC(=O)c1ccc(CN2Cc3cccc(Oc4ccc(C(F)(F)F)cc4F)c3C2=O)cc1F` [Example 461, 2-fluoro-4-((7-(2-fluoro-4-(trifluoromethyl)phenoxy)-1-oxo-1,3-dihydro-2H-isoindol-2-yl)methyl)benzamide], the pEC50 is 7.30 and the “activity (%) at 10 μM” value is 95%.

`Cc1nn(C)cc1-c1ccc(CN2Cc3ccnc(OCC4(C)CC4)c3C2=O)c(F)c1` [Example 341, 2-(4-(1,3-dimethyl-1H-pyrazol-4-yl)-2-fluorobenzyl)-4-((1-methylcyclopropyl)methoxy)-1,2-dihydro-3H-pyrrolo[3,4-c]pyridin-3-one]: the pEC50 is 7.20 and the “activity (%) at 10 μM” value worked out at 93%.

Turning to `Cn1cc(-c2ccc(CN3Cc4ccnc(Oc5ccc(C(O)C(F)(F)F)cc5F)c4C3=O)cc2)cn1` (stereo not drawn) [Example 393, 4-(2-fluoro-4-(2,2,2-trifluoro-1-hydroxyethyl)phenoxy)-2-(4-(1-methyl-1H-pyrazol-4-yl)benzyl)-1,2-dihydro-3H-pyrrolo[3,4-c]pyridin-3-one], the pEC50 is 8.30 and the “activity (%) at 10 μM” value is given as 89%.

`Cc1cc(-c2ccc(CN3Cc4ccnc(Oc5ccc(C#N)cc5F)c4C3=O)cc2)ccn1` [Example 368, 3-fluoro-4-((2-(4-(2-methylpyridin-4-yl)benzyl)-3-oxo-2,3-dihydro-1H-pyrrolo[3,4-c]pyridin-4-yl)oxy)benzonitrile]: the pEC50 is 8.00 and the “activity (%) at 10 μM” value came to 99%.

For `CC(C)n1cc(-c2ccc(CN3Cc4ccnc(Oc5c(F)cc(C#N)cc5F)c4C3=O)cc2)cn1` [Example 384, 3,5-difluoro-4-((2-(4-(1-isopropyl-1H-pyrazol-4-yl)benzyl)-3-oxo-2,3-dihydro-1H-pyrrolo[3,4-c]pyridin-4-yl)oxy)benzonitrile], the pEC50 was 8.11 and the “activity (%) at 10 μM” value was 91%.

`Cc1cc(-c2ccc(CN3Cc4ccnc(OCC5CCCO5)c4C3=O)cc2)cnn1` (stereo not drawn) [Example 326, 2-(4-(6-methylpyridazin-4-yl)benzyl)-4-((tetrahydrofuran-2-yl)methoxy)-1,2-dihydro-3H-pyrrolo[3,4-c]pyridin-3-one]: the pEC50 was 7.64 and the “activity (%) at 10 μM” value was found to be 108%.

With `Cc1nn(C)cc1-c1ccc(CN2Cc3ccnc(Oc4c(F)cccc4Cl)c3C2=O)cc1` [Example 281, 4-(2-chloro-6-fluorophenoxy)-2-(4-(1,3-dimethyl-1H-pyrazol-4-yl)benzyl)-1,2-dihydro-3H-pyrrolo[3,4-c]pyridin-3-one], the pEC50 is 7.19 and the “activity (%) at 10 μM” value is 108%.

As to `Cn1cc(-c2ccc(CN3Cc4ccnc(OCc5ccc(F)cc5F)c4C3=O)cc2)nn1` [Example 336, 4-((2,4-difluorobenzyl)oxy)-2-(4-(1-methyl-1H-1,2,3-triazol-4-yl)benzyl)-1,2-dihydro-3H-pyrrolo[3,4-c]pyridin-3-one], the pEC50 is 7.66 and the “activity (%) at 10 μM” value is 106%.

Consider `Cn1cc(-c2ccc(CN3Cc4cccc(Oc5c(F)cc([N+](=O)[O-])cc5Cl)c4C3=O)cc2)cn1` [Example 10, 7-(2-chloro-6-fluoro-4-nitrophenoxy)-2-(4-(1-methyl-1H-pyrazol-4-yl)benzyl)isoindolin-1-one], for which the pEC50 is 7.27 and the “activity (%) at 10 μM” value was determined as 103%.

For `Cn1ccc(-c2ccc(CN3Cc4ccnc(Oc5c(F)cc(F)cc5F)c4C3=O)cc2)n1` [Example 365, 2-(4-(1-methyl-1H-pyrazol-3-yl)benzyl)-4-(2,4,6-trifluorophenoxy)-1H-pyrrolo[3,4-c]pyridin-3(2H)-one], the pEC50 is 7.36 and the “activity (%) at 10 μM” value turned out to be 104%.

Consider `CCNC(=O)c1ccc(CN2Cc3ccnc(Oc4ccc(C)cc4F)c3C2=O)cc1` [Example 434, N-ethyl-4-((4-(2-fluoro-4-methylphenoxy)-3-oxo-1,3-dihydro-2H-pyrrolo[3,4-c]pyridin-2-yl)methyl)benzamide], for which the pEC50 was 7.59 and the “activity (%) at 10 μM” value is 95%.
